Results on six compounds are retold here after US10215746B2, “Methods for diagnosis and intervention of hepatic disorders” (The Regents of the University of Colorado, priority 2005, dated 2019).

For data set [1] the following is noted: in vivo; cited from earlier work.
The nature of data set [2]: Dissolution of cholate for oral solution. The format is physicochemical. Conditions: aqueous sodium bicarbonate.
In data set [3] the test system is chronic hepatitis C. Conditions: 90 μg/week vs no treatment; cited from earlier work.
For data set [4] the following is noted: single intravenous injection; cited from earlier work.
The conditions of data set [5]: cited from earlier work.
For data set [6] the following is noted: cited from earlier work. This is another data set of the same source.

Read-outs that look alike come from different tables or passages of the source.

Turning to `Cc1cc(=O)n(-c2ccccc2)n1C` [antipyrine], the “drug appearing unchanged in the urine” value in data set [1] is on record as 5%.

For `C[C@H](CCC(=O)O)[C@H]1CC[C@H]2[C@@H]3[C@H](O)C[C@@H]4C[C@H](O)CC[C@]4(C)[C@H]3C[C@H](O)[C@]12C` [Cholate, cholic acid], the dissolution entry in data set [2] was “easily dissolved”. In the case of peginterferon alfa-2a [PegIFN], the “effect on clinical or histological outcomes” value in data set [3] was “did not affect clinical or histological outcomes”. For `O=C[C@H](O)[C@@H](O)[C@@H](O)[C@H](O)CO` [galactose], in data set [4], the “share of total plasma elimination due to distribution and metabolism outside the liver” value is 40%; the “share of total plasma elimination due to hepatic clearance” value was “Approximately 60%”. For `CCN(CC)CC(=O)Nc1c(C)cccc1C` [Lidocaine], the “side effects (sensory symptoms)” value is on record as 30% in data set [5] (lower dose (less than 1 mg/kg such as 0.5 mg/kg) iv) and 53% in data set [5] (standard dose 1 mg/kg iv over 2 minutes). For the same compound, the first pass elimination entry in data set [6] (in vivo) is on record as “up to 81%”. Turning to `CC1(C)C(/C=C/C=C/C=C/C=C2\N(CCCCS(=O)(=O)O)c3ccc4ccccc4c3C2(C)C)=[N+](CCCCS(=O)(=O)[O-])c2ccc3ccccc3c21` [Indocyanine green], the first-pass hepatic extraction entry in data set [6] (administered intravenously) is given as “up to 80%”.
